The text below walks through data of ChEMBL document CHEMBL4602685, “Yanhusanines A-F, Isoquinoline-Derived Alkaloid Enantiomers from Corydalis yanhusuo and Their Biological Activity” (J Nat Prod, 2020).

Active and inactive are the calls of the source. No cut-off for these calls is given here.

In general, IC50 refers to the midpoint of a concentration-inhibition curve. Low values mean greater potency, high ones weaker potency.

In one test the target is T1, Liver carboxylesterase 1 (Homo sapiens, UniProt P23141).
T1 sequence (P23141 whole entry): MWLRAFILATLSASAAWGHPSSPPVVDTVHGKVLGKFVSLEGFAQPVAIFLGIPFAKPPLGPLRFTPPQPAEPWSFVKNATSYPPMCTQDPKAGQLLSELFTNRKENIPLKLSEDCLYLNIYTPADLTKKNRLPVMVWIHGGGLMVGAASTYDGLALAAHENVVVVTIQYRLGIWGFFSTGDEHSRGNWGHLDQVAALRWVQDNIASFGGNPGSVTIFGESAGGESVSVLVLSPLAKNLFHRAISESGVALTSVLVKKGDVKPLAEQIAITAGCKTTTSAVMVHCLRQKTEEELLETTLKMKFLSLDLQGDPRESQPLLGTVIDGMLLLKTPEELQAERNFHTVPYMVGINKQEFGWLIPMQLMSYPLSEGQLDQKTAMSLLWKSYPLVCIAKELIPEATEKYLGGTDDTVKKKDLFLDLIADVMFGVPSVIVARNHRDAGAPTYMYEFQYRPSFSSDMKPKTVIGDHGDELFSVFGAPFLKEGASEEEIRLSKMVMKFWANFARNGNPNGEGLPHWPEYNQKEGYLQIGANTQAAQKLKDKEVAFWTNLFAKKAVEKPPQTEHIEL
Nature of the test: Inhibition of human CE1 using D-luciferin methyl ester as substrate preincubated for 10 mins followed by substrate addition and measured after 10 mins by luminescence assay.

In a further test the target is T2, Cocaine esterase (Homo sapiens, UniProt O00748).
T2 sequence (O00748 whole entry): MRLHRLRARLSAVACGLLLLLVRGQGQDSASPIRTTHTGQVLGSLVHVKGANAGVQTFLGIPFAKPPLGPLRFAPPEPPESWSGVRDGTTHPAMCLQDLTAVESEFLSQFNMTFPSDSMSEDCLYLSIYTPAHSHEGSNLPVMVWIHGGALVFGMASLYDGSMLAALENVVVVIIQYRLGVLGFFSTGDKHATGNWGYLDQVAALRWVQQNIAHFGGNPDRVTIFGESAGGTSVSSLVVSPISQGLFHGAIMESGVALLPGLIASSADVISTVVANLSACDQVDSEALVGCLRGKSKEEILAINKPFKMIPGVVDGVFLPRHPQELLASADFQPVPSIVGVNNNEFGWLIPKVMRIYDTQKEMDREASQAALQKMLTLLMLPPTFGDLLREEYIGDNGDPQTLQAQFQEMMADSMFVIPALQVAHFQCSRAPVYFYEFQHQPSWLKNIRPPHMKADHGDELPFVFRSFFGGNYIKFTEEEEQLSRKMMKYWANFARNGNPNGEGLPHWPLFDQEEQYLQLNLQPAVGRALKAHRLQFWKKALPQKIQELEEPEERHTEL
Kind of test: Inhibition of human CE2 using fluorescein diacetate as substrate preincubated for 10 mins followed by substrate addition and measured after 10 mins by luminescence assay.

The species named for the next test is Homo sapiens. Nature of the test: Selectivity ratio of IC50 for inhibition of human CE1 […].
In test [1] the target is T3, Tyrosine-protein phosphatase non-receptor type 1 (Homo sapiens) (UniProt P18031).
T3 sequence (whole entry): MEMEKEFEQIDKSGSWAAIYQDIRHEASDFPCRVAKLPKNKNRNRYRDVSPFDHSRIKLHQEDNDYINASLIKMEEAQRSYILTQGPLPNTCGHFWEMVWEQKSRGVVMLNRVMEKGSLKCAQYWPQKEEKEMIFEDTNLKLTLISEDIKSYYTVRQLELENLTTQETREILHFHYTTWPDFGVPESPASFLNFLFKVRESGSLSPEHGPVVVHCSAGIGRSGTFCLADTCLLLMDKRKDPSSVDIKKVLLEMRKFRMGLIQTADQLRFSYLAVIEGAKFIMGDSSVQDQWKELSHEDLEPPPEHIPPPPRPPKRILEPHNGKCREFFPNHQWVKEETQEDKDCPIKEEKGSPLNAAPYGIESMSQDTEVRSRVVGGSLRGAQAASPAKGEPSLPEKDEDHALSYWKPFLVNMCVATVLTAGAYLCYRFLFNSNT
Kind of test: Inhibition of recombinant human GST-tagged PTP1B using para-nitrophenyl phosphate as substrate incubated for 10 mins by spectrophotometric method.

A further test deals with HepG2. Kind of test: Cytoprotection activity in human HepG2 cells assessed as reduction in acetaminophen-induced cell injury after 48 hrs by MTT assay. It counts as functional, cell-based.
For the next test, the system named is Peritoneal macrophage. Kind of test: Antiinflammatory activity in C57BL/6J mouse Peritoneal macrophages assessed as reduction in LPS-induced TNFalpha secretion after 24 hrs. It counts as functional, cell-based.
Another test has as its system A2780. Kind of test: Cytotoxicity against human A2780 cells assessed as reduction in cell viability after 24 hrs by MTT assay. The class given is functional, cell-based. For orientation: Tetrazolium dyes change colour on reduction, which living cells bring about.
Another test deals with HCT-8. Kind of test: Cytotoxicity against human HCT8 cells assessed as reduction in cell viability after 24 hrs by MTT assay. The class given is functional, cell-based.
A further test concerns Bel-7402. Kind of test: Cytotoxicity against human Bel7402 cells assessed as reduction in cell viability after 24 hrs by MTT assay. It counts as functional, cell-based.
The subject of another test is BGC-823. Kind of test: Cytotoxicity against human BGC823 cells assessed as reduction in cell viability after 24 hrs by MTT assay. It counts as functional, cell-based.
The test system of the next test is A549. Nature of the test: Cytotoxicity against human A549 cells assessed as reduction in cell viability after 24 hrs by MTT assay. The class given is functional, cell-based.
For a further test, the system named is Staphylococcus aureus. Kind of test: Antimicrobial activity against Staphylococcus aureus ATCC 25923 assessed as reduction in microbial growth after 24 hrs by CLSI based broth microdilution method. It counts as functional, organism-based. A general note: Dilution methods test growth across graded concentrations, often in twofold steps.
The test system of test [2] is Staphylococcus epidermidis. Kind of test: Antimicrobial activity against Staphylococcus epidermidis ATCC 12228 assessed as reduction in microbial growth after 24 hrs by CLSI based broth microdilution method. It counts as functional, organism-based.
The subject of another test is Escherichia coli. Kind of test: Antimicrobial activity against Escherichia coli ATCC 25922 assessed as reduction in microbial growth after 24 hrs by CLSI based broth microdilution method. The class given is functional, organism-based.
The test system of test [3] is Mycolicibacterium smegmatis. Nature of the test: Antimicrobial activity against Mycobacterium smegmatis MC2155 […] assessed as reduction in microbial growth after 24 hrs by CLSI based broth microdilution method. It counts as functional, organism-based.

For `COc1cc2c(cc1OC)C([C@H](C)c1ccc(OC)c(OC)c1O)=NCC2`, the IC50 against Liver carboxylesterase 1 was greater than 100 µM; at Cocaine esterase, 7.1 µM. In addition, the Ratio IC50 in the test listed under Homo sapiens is 14.1. Moreover, the inhibition result in test [1] is “inactive”. Besides, the result with HepG2, in the test on Peritoneal macrophage, in the test on A2780, in the test on HCT-8, in the test on Bel-7402 and in the test on BGC-823 was inactive. The outcome (with A549; in the test with Staphylococcus aureus; in test [2]; with Escherichia coli; in test [3]) was inactive.
`O=[N+]([O-])c1ccc(OP(=O)(O)Oc2ccc([N+](=O)[O-])cc2)cc1` yielded an IC50 at Liver carboxylesterase 1 of 0.2 µM.
Turning to `COc1cc2c(cc1OC)C([C@@H](C)c1ccc(OC)c(OC)c1O)=NCC2`, the values for the 50% inhibitory concentration (IC50) at Liver carboxylesterase 1 and at Cocaine esterase were greater than 100 µM and 8.7 µM, respectively. Moreover, in the test filed under Homo sapiens, the Ratio IC50 stood at 11.6. Also, in test [1], the inhibition entry was “inactive”. Moreover, the result in the test with HepG2, in the test with Peritoneal macrophage, in the test on A2780, with HCT-8, in the test with Bel-7402 and in the test with BGC-823 was inactive. Moreover, the result (with A549; in the test on Staphylococcus aureus; in [2]; in the test with Escherichia coli; in test [3]) was inactive.
In turn, `COc1cc2ccnc([C@H](C)c3ccc(OC)c(OC)c3O)c2cc1OC` returned an IC50 against Cocaine esterase greater than 100 µM. In addition, the inhibition entry in test [1] is “inactive”. Besides, the result in the test on HepG2, in the test on Peritoneal macrophage, with A2780, in the test on HCT-8, in the test with Bel-7402 and in the test on BGC-823 was inactive. The result (in the test with A549; in the test on Staphylococcus aureus; in test [2]; in the test with Escherichia coli; in test [3]) was inactive.
Consider `COc1cc2ccnc([C@@]3(C)OC(=O)c4c3ccc(OC)c4OC)c2cc1OC`, for which the IC50 against Liver carboxylesterase 1 is greater than 100 µM; at Cocaine esterase, 2 µM. Moreover, the Ratio IC50 in the test filed under Homo sapiens was determined as 49.3. The inhibition result in [1] is “inactive”. For the same molecule, the result in the test on HepG2, in the test on Peritoneal macrophage, in the test on A2780, with HCT-8, in the test on Bel-7402 and with BGC-823 was inactive. Also, the outcome (in the test with A549; with Staphylococcus aureus; in test [2]; in the test with Escherichia coli; in test [3]) was inactive.
Regarding `COc1cc2ccnc([C@]3(C)OC(=O)c4c3ccc(OC)c4OC)c2cc1OC`, the IC50 at Liver carboxylesterase 1 is greater than 100 µM; against Cocaine esterase, 3.5 µM. Besides, the Ratio IC50 in the test filed under Homo sapiens stood at 28.9. Moreover, the inhibition result in [1] was “inactive”. The result in the test with HepG2, in the test on Peritoneal macrophage, in the test on A2780, with HCT-8, in the test on Bel-7402 and with BGC-823 was inactive. Also, the outcome (in the test with A549; in the test on Staphylococcus aureus; in test [2]; in the test on Escherichia coli; in [3]) was inactive.
Consider `COc1cc2ccnc([C@@H](C)c3ccc(OC)c(OC)c3O)c2cc1OC`, for which the IC50 against Cocaine esterase is greater than 100 µM. In [1], the inhibition entry is “inactive”. Further, the outcome with HepG2, with Peritoneal macrophage, in the test on A2780, in the test on HCT-8, with Bel-7402 and in the test with BGC-823 was inactive. The result (with A549; in the test on Staphylococcus aureus; in [2]; in the test on Escherichia coli; in [3]) was inactive.
Turning to `COc1cc2c(cc1OC)C([C@@](C)(OC)c1ccc(OC)c(OC)c1O)=NCC2`, the IC50 is greater than 100 µM against Liver carboxylesterase 1 and 9.3 µM against Cocaine esterase. For the same molecule, in the test listed under Homo sapiens, the Ratio IC50 amounted to 10.8. Moreover, the inhibition entry in test [1] is “inactive”. The result in the test with HepG2, in the test on Peritoneal macrophage, in the test with A2780, with HCT-8, in the test with Bel-7402 and in the test with BGC-823 was inactive. For the same molecule, the result (in the test on A549; in the test on Staphylococcus aureus; in test [2]; with Escherichia coli; in test [3]) was inactive.
For `COc1cc2c(cc1OC)[C@@]1(Oc3c(ccc(OC)c3OC)[C@]1(C)O)N(C=O)CC2`, the IC50 on Liver carboxylesterase 1 is greater than 100 µM. Further, in [1], the inhibition result is “inactive”. Further, the result with HepG2, in the test on Peritoneal macrophage, in the test with A2780, in the test with HCT-8, in the test with Bel-7402 and in the test with BGC-823 was inactive. Moreover, the outcome (in the test on A549; with Staphylococcus aureus; in [2]; in the test on Escherichia coli; in test [3]) was inactive.
`COc1cc2c(cc1OC)[C@]1(Oc3c(ccc(OC)c3OC)[C@@]1(C)O)N(C=O)CC2`: the half-inhibitory concentration (IC50) on Liver carboxylesterase 1 is greater than 100 µM. The inhibition entry in [1] was “inactive”. For the same molecule, the outcome in the test with HepG2, with Peritoneal macrophage, in the test on A2780, in the test with HCT-8, in the test with Bel-7402 and with BGC-823 was inactive. Further, the result (in the test on A549; in the test on Staphylococcus aureus; in [2]; in the test with Escherichia coli; in test [3]) was inactive.
